# In US9981956B2, “Small molecule inhibitors of fibrosis” (THE CALIFORNIA INSTITUTE FOR BIOMEDICAL RESEARCH, priority 2013, dated 2018):
# Where two headings read alike, the source gives them in different places.
# Columns and labels:
# [1] = molecular target: T1, Cyp3A4 (Homo sapiens, UniProt P08684); experiment: Cyp reversible inhibition assay (human liver microsomes)
# Experimental: The purpose of this assay was to determine reversible inhibition of Cyp enzyme with a given compound using a substrate probe turnover as the surrogate for inhibition. This was done with human liver microsomes rather an isolated enzyme to account for metabolites of parent drug leading to a potential drug-drug interaction through Cyp inhibition. The substrate turnover (for example conversion of midazolam to hydroxyl midazolam) was monitored by LCMSMS (Q1/Q2=342.2/203.2). Test compounds were tested in a 7-point dose response curve starting from 50 μM to 50 nM (˜3-fold dilution series).
# The detailed protocol was as follows: • Prepared test compounds and standard inhibitors working solution (100×) • Pulled microsomes out of the −80° C. freezer to thaw on ice, labeled with the date and put back to freezer immediately after using. • Added 20 μL of the substrate solutions to corresponding wells. • Added 20 μL PB to Blank wells. • Added 2 μL of the test compounds and positive control working solution to corresponding wells. • Added 2 μL MeOH to No Inhibitor wells and Blank wells. • Prepared HLM working solution. • Added 158 μL of the HLM working solution to all wells of incubation plate. • Pre-warmed the plate for about 10 min at 37° C. water bath. • Prepared NADPH cofactor solution. • Added 20 μL NADPH cofactor to all incubation wells. • Mixed and incubated for 10 minutes at 37° C. water bath. • At the time point, terminated the reaction by adding 400 μL cold stop solution (200 ng/mL Tolbutamide in ACN). • Centrifuged the samples at 4000 rpm for 20 minutes to precipitate protein. • Transferred 200 μL supernatant to 200 μL HPLC water and shook for 10 min. • Analyzed samples by LC/MS/MS.
# [2] = molecular target: T1, Cyp3A4; experiment: Cyp time-dependent inhibition (TDI) assay (human liver microsomes); type: in vitro ADME; parameters: The TDI assay was generally performed in liver microsomes; from tissue; host or cells: human liver microsomes; conditions: for IC50: human liver microsomes; for TDI ratio: (−) NADPH/(+) NADPH: IC50 shift, >1.5-fold considered positive for TDI
# Experimental: The data from this assay was used in conjunction to the reversible inhibition assay. […] Then both incubation sets were diluted with fresh assay buffer containing NADPH Cyp specific substrates (midazolam for Cyp3A4) and inhibition of midazolam hydroxylation was measured by LC-MS/MS (Q1/Q2=m/z 342.2/203.2).
# [3] = Mouse pharmacokinetic (PK) studies, snapshot format; type: in vivo; conditions: plasma, po, 20 mg/kg; for AUC(0-t): read-out: AUC0-24 h
# Experimental: Compounds with suitable in vitro ADME properties were progressed to in vivo PK studies. A snapshot format in mice was used to quickly assess the potential for lead candidates to be orally bioavailable. The snapshot format involved a single dose (typically 20 mg/kg) given orally in a standard vehicle (5% PEG/DMSO in water for example). Compounds were infused directly into MS analysis to determine unique MRM (multiple reaction monitoring) signal that is concentration dependent in either ESI positive or negative modes. HPLC analysis using various solvent gradients was performed from organic and aqueous solution to ensure good peak shape of desired Q1/Q2 masses. Formulations included 45% Cyclodextrin in water (as is used clinically for Itraconazole). Other formulations that may used are solutol, Eudragit, MC/Tween, etc. Standard curves were generated using plasma spiked with compound at various concentrations (10 ng/mL to 2000 ng/mL) to determine linear range of Q1/Q2 mass signal to compound concentration using female mouse heparinized plasma. Mice were dosed orally with compound, plasma samples collected by retro-orbital bleeds. Five time points were collected (30 min, 1 h, 4 h, 8 h, 24 h) into heparinized collection tubes. Protein precipitation was performed and compound extracted in cold acetonitrile and analyzed by MS. Nonwinlin was used for PK modeling as needed.
# [4] = system: bleomycin-induced lung fibrosis; experiment: Bleomycin-induced lung fibrosis model; type: in vivo, mouse; conditions: 10 mg/kg SID versus AM-152 (30 mg/kg BID) and pirfenidone (400 mg/kg BID)
# Source text: These in vivo assays took 6-8 weeks to complete (including full histological analysis). Typical experiments consisted of groups of 6-8 animals treated with itraconazole (2-4 doses), 1 or 2 itraconazole analogues (2-4 doses), vehicle, and benchmark treatments (pirfenidone and AM-152). AM-152 (Amira Pharmaceuticals) is an LPA1 (Lysophosphatidic acid 1) receptor antagonist. This target has been described as relevant to exacerbation of IPF systems in a mouse bleomycin model (British Journal of Pharmacology (2010), 160, 1699-1713). AM-152 is an advanced compound on this target as has been previously described in more detail in WO 2012/078805 and was used as a positive control and comparator to the compound disclosed in this application.
# Nine-week old B6 male mice (Taconic farms) were surgically implanted with osmotic pumps delivering 25 mg/kg bleomycin for seven days. 17 days after surgery mice were treated with drug for 2 weeks. Drug treatments were administered as described in study design (FIG. 14). Previously described anti-fibrotic drugs AM-152 and pirfenidone were used as positive control drugs. […] Stained lung sections were analyzed according to a modified Ashcroft scoring system (FIG. 16) and using an unbiased automated image analysis method. […] Total stained area was then determined by using the area measurement function within ImageJ.
# [5] = Cyp 3A4 midazolam LCMS IC50, human liver microsomes, substrate midazolam
# [6] = Cyp 3A4 testosterone LCMS IC50, human liver microsomes, substrate testosterone
# [7] = 20 min pre-incubation with NADPH, read-out: 3A4-Midazolam IC50 (+) NADPH
# [8] = 20 min pre-incubation without NADPH, read-out: 3A4-Midazolam IC50 (−) NADPH
# [9] = 20 mg/kg in 0.5% MC/0.5% TW80 suspension vehicle
# [10] = 20 mg/kg in 45% cyclodextrin with water
# T1 sequence (P08684 whole entry): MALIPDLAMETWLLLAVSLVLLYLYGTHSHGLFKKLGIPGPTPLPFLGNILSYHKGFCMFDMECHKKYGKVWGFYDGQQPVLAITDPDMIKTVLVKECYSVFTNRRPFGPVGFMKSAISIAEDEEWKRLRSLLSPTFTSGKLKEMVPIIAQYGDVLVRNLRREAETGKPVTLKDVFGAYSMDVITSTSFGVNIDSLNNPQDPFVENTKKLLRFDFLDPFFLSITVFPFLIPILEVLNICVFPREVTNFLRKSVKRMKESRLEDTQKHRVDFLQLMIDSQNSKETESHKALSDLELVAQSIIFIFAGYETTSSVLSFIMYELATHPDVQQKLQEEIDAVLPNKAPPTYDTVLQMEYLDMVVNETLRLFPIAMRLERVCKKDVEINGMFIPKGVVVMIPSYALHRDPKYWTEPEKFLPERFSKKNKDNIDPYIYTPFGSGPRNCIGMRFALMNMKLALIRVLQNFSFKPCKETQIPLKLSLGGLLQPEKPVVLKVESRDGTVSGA
"IC50 [1, 5] [µM]","IC50 [1, 6] [µM]","IC50 [2, 7] [µM]","IC50 [2, 8] [µM]",TDI ratio: (−) NADPH/(+) NADPH [2],"Cmax [3, 9] [nM]","AUC(0-t) [3, 9] [µM·h]","Cmax [3, 10] [nM]","AUC(0-t) [3, 10] [µM·h]",SMILES,Lung fibrosis disease severity compared to control compounds [4]
> 50,> 50,41,> 50,~1.2 (no TDI),,,,,CCC(C)n1ncn(-c2ccc(N3CCN(c4ccc(OC[C@@H]5CO[C@@](Cn6nccn6)(c6ccc(Cl)cc6Cl)O5)cc4)CC3)cc2)c1=O (stereo partly shown) [Compound 15],
> 50,> 50,> 50,> 50,~1 (no TDI),170,2.21,1710,8.08,CCC(C)n1ncn(-c2ccc(N3CCN(c4ccc(OC[C@@H]5CO[C@@](Cc6ccnnc6)(c6ccc(Cl)cc6Cl)O5)cc4)CC3)cc2)c1=O (stereo partly shown) [Compound 22],
> 50,> 50,> 50,> 50,~1 (no TDI),,,3160,42.7,CCC(C)n1ncn(-c2ccc(N3CCN(c4ccc(OC[C@@H]5CO[C@@](Cn6nccn6)(c6ccccc6)O5)cc4)CC3)cc2)c1=O (stereo partly shown) [Compound 42],decreased lung fibrosis disease severity with efficacy that was as good or better
